This passage reports mass density, Normal boiling temperature and refractive index results from the NIST ThermoML archive (doi:10.1021/je049848j).

± gives the expanded uncertainty stated by the source.

Assay in the first series: not given
The note with it: 293 K; 101.33 kPa; Liquid; Vibrating tube method.
The mass density is mass per unit of volume. For `CC(=O)O` [acetic acid], the mass density was found to be 1049.5 ± 0.5 kg/m3.

In the case of `CC(=O)OC1CCCCC1` [cyclohexyl ethanoate], the mass density is given as 969.2 ± 0.9 kg/m3.

Regarding `CCCCCO` [pentan-1-ol], the mass density was determined as 814 ± 0.5 kg/m3.

As for `CCC(=O)O` [propanoic acid], the mass density was 992.5 ± 0.5 kg/m3.

`Cc1ccccc1` [toluene]: the mass density was 867.3 ± 0.5 kg/m3.

Staying with this series, now noted: Liquid; Fischer boiling apparatus.
`CC(=O)O` [acetic acid]: the Normal boiling temperature was determined as 117.70 ± 0.2 °C.

For the compound `CC(=O)OC1CCCCC1` [cyclohexyl ethanoate], the Normal boiling temperature worked out at 172.60 ± 0.2 °C.

On to `CCCCCO` [pentan-1-ol], for which the Normal boiling temperature stood at 138.00 ± 0.2 °C.

In the case of `CCC(=O)O` [propanoic acid], the Normal boiling temperature was 140.90 ± 0.2 °C.

On to `Cc1ccccc1` [toluene], for which the Normal boiling temperature stood at 110.30 ± 0.2 °C.

The next series in a line: refractive index (Na D-line) (dimensionless). The note with it: 293 K; 101.33 kPa; Liquid; Standard Abbe refractometry.
What is called refractive index is the speed of light in vacuum divided by its phase velocity in the sample. `CC(=O)O` [acetic acid]: the refractive index is listed as 1.372 ± 0.0011.

`CC(=O)OC1CCCCC1` [cyclohexyl ethanoate]: the refractive index turned out to be 1.4398 ± 0.0011.

For the compound `CCCCCO` [pentan-1-ol], the refractive index came out at 1.4104 ± 0.0011.

As to `CCC(=O)O` [propanoic acid], the refractive index stood at 1.3811 ± 0.0011.

With `Cc1ccccc1` [toluene], the refractive index is listed as 1.496 ± 0.0011.
